The values below come from patent publication US12139499B2, “Heteroaryl compounds for treating Huntington's disease” (PTC THERAPEUTICS, INC., priority 2018, dated 2024).

pIC50: −log10 of the molar value.

The subject of the assay is Endogenous Huntingtin Protein. The experiment in a line: Endogenous Huntingtin Protein Assay (ELISA-based MSD electrochemiluminescence). To be noted: Table 1. The class given is cell-based. The essentials:
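Huntingtin was captured overnight at 4 °C on plates coated with 1 μg/mL MW1 (polyQ-expanded) or MAB2166 antibody and BSA-blocked. Detection used a rabbit monoclonal and then a SULFO-TAG goat anti-rabbit antibody (0.25 μg/mL, 1 h each, room temperature). Signal was read by electrochemiluminescence.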
`Cc1cn2nc(-c3cc(F)c4nc(C5CCNCC5)sc4c3)ccc2n1` [Compound 45, 6-[4-fluoro-2-(piperidin-4-yl)-1,3-benzothiazol-6-yl]-2-methylimidazo[1,2-b]pyridazine] had a pIC50 of no less than 7.00.

Turning to `CN(c1nc2cnc(-c3cc(F)c4nn(C)cc4c3)cc2s1)C1CC2(C)CCC(C)(C1)N2` [Compound 298, N-[(1R,3s,5S)-1,5-dimethyl-8-azabicyclo[3.2.1]octan-3-yl]-6-(7-fIuoro-2-methyl-2H-indazol-5-yl)-N-methyl[1,3]thiazolo[4,5-c]pyridin-2-amine], the pIC50 is no less than 7.00.

Molecule `Cn1cc2cc(-c3ccc4nc(OC5CC(C)(C)NC(C)(C)C5)sc4c3)ccc2n1` [Compound 64, 6-(2-methyl-2H-indazol-5-yl)-2-[(2,2,6,6-tetramethylpiperidin-4-yl)oxy]-1,3-benzothiazole] showed a pIC50 of 5.52 to 6.00.

Consider `Cc1cn2nc(-c3cc(F)c4nc(OC5CC(C)(C)NC(C)(C)C5)sc4c3)cc(C)c2n1` [Compound 133, 6-{4-fluoro-2-[(2,2,6,6-tetramethylpiperidin-4-yl)oxy]-1,3-benzothiazol-6-yl}-2,8-dimethylimidazo[1,2-b]pyridazine], for which the pIC50 is no less than 7.00.

`Cc1cn2cc(-c3ccc4nc(C5CCNCC5)sc4c3)cc(F)c2n1` [Compound 113, 6-(8-fluoro-2-methylimidazo[1,2-a]pyridin-6-yl)-2-(piperidin-4-yl)-1,3-benzothiazole] gave a pIC50 of no less than 7.00.

In turn, `CN(c1nc2cnc(-c3ccc(-c4cn[nH]c4)cc3O)nc2s1)C1CC(C)(C)NC(C)(C)C1` [Compound 142, 2-{2-[methyl(2,2,6,6-tetramethylpiperidin-4-yl)amino][1,3]thiazolo[5,4-d]pyrimidin-5-yl}-5-(1H-pyrazol-4-yl)phenol] showed a pIC50 of 6.30 to 7.00.

For `Cn1cc2cc(-c3cc4sc(C5CCNCC5)nc4cn3)cc(C#N)c2n1` [Compound 74, 2-methyl-5-[2-(piperidin-4-yl)[1,3]thiazolo[4,5-c]pyridin-6-yl]-2H-indazole-7-carbonitrile], the negative logarithm of the IC50 (pIC50) is no less than 7.00.

As to `CN(c1nc2cnc(-c3cc(F)c4nn(C)cc4c3)cc2s1)C1CCNCC1` [Compound 216, 6-(7-fluoro-2-methyl-2H-indazol-5-yl)-N-methyl-N-(piperidin-4-yl)[1,3]thiazolo[4,5-c]pyridin-2-amine], the pIC50 is 6.30 to 7.00.

In the case of `Cc1cn2nc(-c3cc(F)c4nc(N(C)C5CCNCC5)sc4c3)cc(C)c2n1` [Compound 186, 6-(2,8-dimethylimidazo[1,2-b]pyridazin-6-yl)-4-fluoro-N-methyl-N-(piperidin-4-yl)-1,3-benzothiazol-2-amine], the negative logarithm of the IC50 (pIC50) is no less than 7.00.

Regarding `CCN1CCC(Oc2nc3c(F)cc(-c4cc(C)c5nc(C)cn5n4)cc3s2)CC1` [Compound 321, 6-{2-[(1-ethylpiperidin-4-yl)oxy]-4-fluoro-1,3-benzothiazol-6-yl}-2,8-dimethylimidazo[1,2-b]pyridazine], the pIC50 was no less than 7.00.

In the case of `Cc1cn2cc(-c3cc4sc(N(C)C5CC6CCCC(C5)N6C)nc4cn3)cc(C#N)c2n1` (stereo not shown) [Compound 270, 2-methyl-6-{2-[methyl(9-methyl-9-azabicyclo[3.3.1]non-3-yl)amino][1,3]thiazolo[4,5-c]pyridin-6-yl}imidazo[1,2-a]pyridine-8-carbonitrile], the negative-log IC50 (pIC50) is no less than 7.00.

On to `CN(c1ccc2nc(-c3ccc4nn(C)cc4c3)sc2c1)C1CCNCC1` [Compound 11, N-methyl-2-(2-methyl-2H-indazol-5-yl)-N-(piperidin-4-yl)-1,3-benzothiazol-6-amine], for which the pIC50 is 5.52 to 6.00.

Turning to `COc1cc(-c2cc(F)c3nc(N(C)C4CC(C)(C)NC(C)(C)C4)sc3c2)nn2cc(C)nc12` [Compound 200, 4-fluoro-6-(8-methoxy-2-methylimidazo[1,2-b]pyridazin-6-yl)-N-methyl-N-(2,2,6,6-tetramethylpiperidin-4-yl)-1,3-benzothiazol-2-amine], the pIC50 is no less than 7.00.
